Measured values from ChEMBL document CHEMBL5465560, “Selectivity Literature for EUbOPEN Chemogenomic Library” (2024).

How the values were obtained:
Ephrin type-A receptor 4 = Ephrin type-A receptor 4 (Homo sapiens, UniProt P54764); assay: Selectivity interaction (Ambit KINOMEscan and KiNATiv profiling in Jurkat cells) EUB0000090b EPHA4; format: cell-based; details: at 1 µM
[1] = biological target: T1, Discoidin domain-containing receptor 2 (Homo sapiens) (UniProt Q16832); assay: Selectivity interaction (KinomeScan (DiscoverX)) EUB0001079a DDR2; details: at 1 µM
T1 sequence (whole entry): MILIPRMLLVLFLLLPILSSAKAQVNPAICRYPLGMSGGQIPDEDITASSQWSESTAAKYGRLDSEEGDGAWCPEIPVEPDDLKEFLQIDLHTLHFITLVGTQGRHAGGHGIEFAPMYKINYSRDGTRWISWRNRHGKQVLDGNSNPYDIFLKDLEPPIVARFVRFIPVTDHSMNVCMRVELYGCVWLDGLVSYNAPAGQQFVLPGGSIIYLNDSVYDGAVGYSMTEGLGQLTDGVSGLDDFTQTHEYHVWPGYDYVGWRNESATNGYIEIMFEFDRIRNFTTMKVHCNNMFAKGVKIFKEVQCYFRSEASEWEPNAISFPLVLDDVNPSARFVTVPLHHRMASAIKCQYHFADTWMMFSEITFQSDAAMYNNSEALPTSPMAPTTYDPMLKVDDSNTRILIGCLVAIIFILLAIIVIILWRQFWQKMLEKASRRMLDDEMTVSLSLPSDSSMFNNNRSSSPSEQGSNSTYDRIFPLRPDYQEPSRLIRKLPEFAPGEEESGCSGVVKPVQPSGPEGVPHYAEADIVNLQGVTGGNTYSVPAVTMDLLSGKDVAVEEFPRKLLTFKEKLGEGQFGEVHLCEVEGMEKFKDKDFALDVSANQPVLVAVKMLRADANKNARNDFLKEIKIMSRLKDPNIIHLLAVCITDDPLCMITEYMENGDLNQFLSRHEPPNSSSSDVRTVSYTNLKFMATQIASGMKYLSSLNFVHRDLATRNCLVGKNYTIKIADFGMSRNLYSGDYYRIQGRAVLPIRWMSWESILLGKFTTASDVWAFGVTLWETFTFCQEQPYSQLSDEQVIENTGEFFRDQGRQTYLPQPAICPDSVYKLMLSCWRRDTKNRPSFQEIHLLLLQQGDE

[2] = biological target: T2, Aurora kinase A (Homo sapiens) (UniProt O14965); assay: Selectivity interaction (KinomeScan (DiscoverX)) EUB0000618a STK6; details: at 10 µM
T2 sequence (whole entry): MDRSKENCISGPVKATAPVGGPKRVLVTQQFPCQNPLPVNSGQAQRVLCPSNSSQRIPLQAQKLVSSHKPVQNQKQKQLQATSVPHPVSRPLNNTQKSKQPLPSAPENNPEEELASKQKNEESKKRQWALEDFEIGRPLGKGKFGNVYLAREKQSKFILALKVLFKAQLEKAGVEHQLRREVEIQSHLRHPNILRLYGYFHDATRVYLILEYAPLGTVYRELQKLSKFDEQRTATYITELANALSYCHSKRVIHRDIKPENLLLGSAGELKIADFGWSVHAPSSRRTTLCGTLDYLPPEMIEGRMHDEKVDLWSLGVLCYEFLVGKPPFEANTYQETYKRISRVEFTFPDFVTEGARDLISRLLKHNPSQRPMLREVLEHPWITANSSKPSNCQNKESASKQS

[3] = biological target: Mitogen-activated protein kinase kinase kinase 1 (Homo sapiens, UniProt Q13233); assay: Selectivity interaction (KinomeScan (DiscoverX)) EUB0000595a MAP3K1; details: at 10 µM
Chain of Mitogen-activated protein kinase kinase kinase 1 (Q13233 whole entry): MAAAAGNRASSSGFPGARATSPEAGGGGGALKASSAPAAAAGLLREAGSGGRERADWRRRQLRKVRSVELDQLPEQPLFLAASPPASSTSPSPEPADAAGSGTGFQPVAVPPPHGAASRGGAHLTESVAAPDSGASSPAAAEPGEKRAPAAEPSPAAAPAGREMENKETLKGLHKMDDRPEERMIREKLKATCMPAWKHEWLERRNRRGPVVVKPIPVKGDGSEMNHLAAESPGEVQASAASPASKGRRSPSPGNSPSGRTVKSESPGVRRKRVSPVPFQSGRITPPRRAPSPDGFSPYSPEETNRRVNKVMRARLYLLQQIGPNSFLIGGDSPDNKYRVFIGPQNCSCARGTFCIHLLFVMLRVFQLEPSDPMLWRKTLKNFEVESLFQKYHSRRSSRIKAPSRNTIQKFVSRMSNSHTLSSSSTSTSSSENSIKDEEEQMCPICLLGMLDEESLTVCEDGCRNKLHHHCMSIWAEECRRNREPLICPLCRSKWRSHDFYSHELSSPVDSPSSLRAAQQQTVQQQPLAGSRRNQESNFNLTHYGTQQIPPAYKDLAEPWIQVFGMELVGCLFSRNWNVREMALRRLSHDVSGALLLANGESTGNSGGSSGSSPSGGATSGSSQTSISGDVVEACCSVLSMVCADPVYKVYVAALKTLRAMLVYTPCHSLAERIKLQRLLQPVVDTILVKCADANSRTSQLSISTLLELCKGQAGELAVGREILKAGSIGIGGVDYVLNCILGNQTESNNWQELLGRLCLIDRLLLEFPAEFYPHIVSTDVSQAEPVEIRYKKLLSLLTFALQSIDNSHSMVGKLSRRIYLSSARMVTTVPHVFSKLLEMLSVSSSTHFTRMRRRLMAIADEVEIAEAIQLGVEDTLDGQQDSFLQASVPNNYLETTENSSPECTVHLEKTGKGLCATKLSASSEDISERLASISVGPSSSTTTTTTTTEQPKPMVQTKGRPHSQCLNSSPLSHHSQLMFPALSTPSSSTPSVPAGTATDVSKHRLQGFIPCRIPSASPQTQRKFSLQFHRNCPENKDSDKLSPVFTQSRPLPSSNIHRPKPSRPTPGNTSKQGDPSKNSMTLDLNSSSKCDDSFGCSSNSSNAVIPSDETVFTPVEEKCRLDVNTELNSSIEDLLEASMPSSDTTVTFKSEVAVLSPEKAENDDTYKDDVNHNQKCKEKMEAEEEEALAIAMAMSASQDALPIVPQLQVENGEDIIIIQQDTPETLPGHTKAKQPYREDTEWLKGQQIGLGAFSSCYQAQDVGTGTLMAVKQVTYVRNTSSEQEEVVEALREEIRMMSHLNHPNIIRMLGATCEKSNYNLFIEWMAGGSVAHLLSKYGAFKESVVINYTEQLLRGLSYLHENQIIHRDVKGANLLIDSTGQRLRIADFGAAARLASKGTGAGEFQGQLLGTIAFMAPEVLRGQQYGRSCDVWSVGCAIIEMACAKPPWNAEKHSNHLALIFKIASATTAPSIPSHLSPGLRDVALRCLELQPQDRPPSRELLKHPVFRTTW

[4] = biological target: MAP kinase-interacting serine/threonine-protein kinase 1 (Homo sapiens) (UniProt Q9BUB5); details: at 10 µM
Chain of MAP kinase-interacting serine/threonine-protein kinase 1 (Homo sapiens) (Q9BUB5 whole entry, looked up): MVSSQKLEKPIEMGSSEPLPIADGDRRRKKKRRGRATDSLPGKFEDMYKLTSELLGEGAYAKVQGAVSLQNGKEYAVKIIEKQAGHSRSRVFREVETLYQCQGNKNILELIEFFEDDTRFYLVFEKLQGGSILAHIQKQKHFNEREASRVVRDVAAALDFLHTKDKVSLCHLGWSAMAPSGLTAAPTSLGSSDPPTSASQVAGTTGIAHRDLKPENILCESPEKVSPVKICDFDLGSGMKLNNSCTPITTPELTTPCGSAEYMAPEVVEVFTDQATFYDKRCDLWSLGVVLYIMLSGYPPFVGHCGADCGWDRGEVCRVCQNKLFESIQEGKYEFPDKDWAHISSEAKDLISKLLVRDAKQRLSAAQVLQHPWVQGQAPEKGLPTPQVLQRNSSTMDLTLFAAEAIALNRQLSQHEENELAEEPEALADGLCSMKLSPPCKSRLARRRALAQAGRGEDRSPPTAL

[5] = biological target: Cyclin-dependent kinase 18 (Homo sapiens) (UniProt Q07002); assay: Selectivity interaction (ActivX KiNativ screen (kinase selectivity in THP-1 cell lysates)) EUB0000639a CDK18; format: subcellular; details: lysate, at 0.04 µM
Chain of Cyclin-dependent kinase 18 (Homo sapiens) (Q07002 whole entry): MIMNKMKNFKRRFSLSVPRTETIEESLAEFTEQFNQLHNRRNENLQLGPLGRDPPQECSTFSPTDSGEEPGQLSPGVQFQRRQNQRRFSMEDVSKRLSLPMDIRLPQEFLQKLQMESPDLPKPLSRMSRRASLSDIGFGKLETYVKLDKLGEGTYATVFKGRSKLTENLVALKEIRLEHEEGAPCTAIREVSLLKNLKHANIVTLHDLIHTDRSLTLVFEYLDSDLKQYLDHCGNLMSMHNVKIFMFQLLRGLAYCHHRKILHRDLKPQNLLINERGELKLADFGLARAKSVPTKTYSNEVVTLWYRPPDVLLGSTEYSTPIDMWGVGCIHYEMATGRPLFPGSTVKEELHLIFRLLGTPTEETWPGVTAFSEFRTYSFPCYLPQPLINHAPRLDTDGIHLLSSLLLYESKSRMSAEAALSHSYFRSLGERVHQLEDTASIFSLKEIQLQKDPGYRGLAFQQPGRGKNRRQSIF

[6] = biological target: T3, MAP kinase-activated protein kinase 5 (Homo sapiens) (UniProt Q8IW41); assay: Selectivity interaction (ProQinase) EUB0000171b MAPKAPK5
T3 sequence (whole entry): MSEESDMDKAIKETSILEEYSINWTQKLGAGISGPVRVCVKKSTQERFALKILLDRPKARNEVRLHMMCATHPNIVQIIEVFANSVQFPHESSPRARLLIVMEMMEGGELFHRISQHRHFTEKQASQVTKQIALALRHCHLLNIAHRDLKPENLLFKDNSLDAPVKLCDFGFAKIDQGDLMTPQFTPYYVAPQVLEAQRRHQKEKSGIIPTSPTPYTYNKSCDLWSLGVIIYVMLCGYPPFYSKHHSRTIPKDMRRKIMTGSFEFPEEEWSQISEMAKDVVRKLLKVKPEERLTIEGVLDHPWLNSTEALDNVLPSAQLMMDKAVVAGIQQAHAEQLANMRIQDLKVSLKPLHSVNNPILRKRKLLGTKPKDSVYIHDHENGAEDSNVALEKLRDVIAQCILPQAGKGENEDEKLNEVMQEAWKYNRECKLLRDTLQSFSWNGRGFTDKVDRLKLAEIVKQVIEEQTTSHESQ

[7] = biological target: Kappa-type opioid receptor (Homo sapiens, UniProt P41145); assay: Selectivity interaction (Opiate Kappa receptor assay, human recombinant ) EUB0000877a OPRK1
Chain of Kappa-type opioid receptor (P41145 whole entry): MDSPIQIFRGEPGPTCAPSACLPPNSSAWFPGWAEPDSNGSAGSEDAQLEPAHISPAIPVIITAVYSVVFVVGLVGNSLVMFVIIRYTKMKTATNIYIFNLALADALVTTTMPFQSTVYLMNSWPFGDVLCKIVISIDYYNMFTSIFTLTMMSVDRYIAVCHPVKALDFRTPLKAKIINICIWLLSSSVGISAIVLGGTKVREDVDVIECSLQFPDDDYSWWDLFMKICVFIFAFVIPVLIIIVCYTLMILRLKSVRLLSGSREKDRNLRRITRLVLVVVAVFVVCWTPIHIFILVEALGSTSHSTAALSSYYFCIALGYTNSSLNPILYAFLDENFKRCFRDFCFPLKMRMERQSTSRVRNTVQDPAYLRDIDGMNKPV

[8] = biological target: T4, Tyrosine-protein kinase ITK/TSK (Homo sapiens) (UniProt Q08881); assay: Selectivity interaction (KinomeScan (DiscoverX)) EUB0000695a ITK; details: at 100 nM
T4 sequence (whole entry): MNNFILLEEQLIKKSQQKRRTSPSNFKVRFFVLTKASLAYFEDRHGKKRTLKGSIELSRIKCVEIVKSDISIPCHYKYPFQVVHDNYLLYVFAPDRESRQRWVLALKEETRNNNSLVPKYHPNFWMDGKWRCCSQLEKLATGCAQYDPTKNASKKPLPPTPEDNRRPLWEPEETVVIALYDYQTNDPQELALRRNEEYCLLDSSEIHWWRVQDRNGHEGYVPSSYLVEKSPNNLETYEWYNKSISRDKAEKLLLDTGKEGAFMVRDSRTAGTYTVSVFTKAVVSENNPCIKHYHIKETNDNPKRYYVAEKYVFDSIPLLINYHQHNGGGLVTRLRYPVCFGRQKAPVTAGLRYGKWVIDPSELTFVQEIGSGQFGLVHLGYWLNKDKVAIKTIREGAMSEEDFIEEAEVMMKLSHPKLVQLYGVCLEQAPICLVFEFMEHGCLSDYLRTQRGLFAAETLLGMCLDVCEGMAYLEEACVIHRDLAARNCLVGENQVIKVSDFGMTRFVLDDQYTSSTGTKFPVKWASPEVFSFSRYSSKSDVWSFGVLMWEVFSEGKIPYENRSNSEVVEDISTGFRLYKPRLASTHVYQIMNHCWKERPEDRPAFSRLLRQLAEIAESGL

Chain of Ephrin type-A receptor 4 (P54764 whole entry, the tested form may be a part): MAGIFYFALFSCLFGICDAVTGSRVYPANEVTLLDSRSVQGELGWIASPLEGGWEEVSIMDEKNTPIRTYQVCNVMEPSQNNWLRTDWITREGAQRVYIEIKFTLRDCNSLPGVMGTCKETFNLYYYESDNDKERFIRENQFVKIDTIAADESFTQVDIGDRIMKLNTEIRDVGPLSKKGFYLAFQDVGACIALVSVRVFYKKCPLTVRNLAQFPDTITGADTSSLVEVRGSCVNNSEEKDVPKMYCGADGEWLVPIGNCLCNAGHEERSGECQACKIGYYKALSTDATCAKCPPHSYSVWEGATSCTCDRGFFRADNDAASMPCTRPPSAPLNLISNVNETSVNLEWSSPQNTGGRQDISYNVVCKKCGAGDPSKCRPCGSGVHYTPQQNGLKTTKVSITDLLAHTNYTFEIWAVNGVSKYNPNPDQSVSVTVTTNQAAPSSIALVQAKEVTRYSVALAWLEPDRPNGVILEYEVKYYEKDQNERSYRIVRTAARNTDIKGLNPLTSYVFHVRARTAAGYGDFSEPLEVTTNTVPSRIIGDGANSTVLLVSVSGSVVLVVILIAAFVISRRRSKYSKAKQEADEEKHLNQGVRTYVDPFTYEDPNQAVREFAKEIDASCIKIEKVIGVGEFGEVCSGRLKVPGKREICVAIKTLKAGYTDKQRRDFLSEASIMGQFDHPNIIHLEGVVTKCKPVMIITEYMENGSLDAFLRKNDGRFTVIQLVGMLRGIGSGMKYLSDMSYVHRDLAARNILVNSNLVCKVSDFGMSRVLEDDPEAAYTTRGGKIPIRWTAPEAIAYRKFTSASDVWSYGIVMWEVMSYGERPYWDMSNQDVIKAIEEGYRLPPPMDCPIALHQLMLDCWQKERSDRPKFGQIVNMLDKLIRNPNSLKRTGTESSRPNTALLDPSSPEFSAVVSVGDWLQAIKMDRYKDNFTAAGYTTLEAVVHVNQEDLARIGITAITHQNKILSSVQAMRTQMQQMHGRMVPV

CN(C)C/C=C/C(=O)Nc1ccc(C(=O)N2CCCC(Nc3ncc(Cl)c(-c4c[nH]c5ccccc45)n3)C2)cc1 (stereo not given)
% of control (Ephrin type-A receptor 4): 98%

Nc1cnc(N2CCc3cc(S(=O)(=O)Nc4c(F)cc(Cl)cc4F)cc(N4CCCC4=O)c32)nc1 [TP-020n]
% of control [1]: 100%

O[C@H]1CC[C@H](Nc2ncc3nc(Nc4c(F)cc(F)cc4F)n([C@H]4CCOC4)c3n2)CC1
% of control [2]: 91%

COCC(=O)NC/C=C/c1ccc2ncnc(Nc3ccc(Oc4ccc(C)nc4)c(C)c3)c2c1 [CP-724714]
% of control [3]: 100%

Cc1cc([C@@H](C)Nc2ccccc2C(=O)O)c2nc(N3CCOCC3)cc(=O)n2c1 [AZD-6482]
% of control [4]: 92%

CC[C@@H]1[C@H](F)C(=O)N[C@@H]1COc1nccc2cc(C(N)=O)c(OC)cc12 [ZIMLOVISERTIB]
% of inhibition [5]: 1.7%

C=CC(=O)Nc1cccc(C(=O)Nc2ccc(Nc3cc(-c4[nH]c(SC)nc4C)ccn3)cc2)c1
% of control ([6]; at 1 µM): 96% | % of control ([6]; at 5 µM): 97%

CCC(=O)N1CC[C@H](Nc2ncnc3c2CN(c2cnc(OC)c(C(F)(F)F)c2)CC3)C1 [LENIOLISIB]
IC50 [7]: > 30 µM

Cc1cc(F)c(C(=O)Nc2cccc(-c3nncn3C(C)C)n2)cc1-n1cnc(C2CC2)c1
% of control [8]: 100%
